Tests used:
[1] = tested on: Tyrosine-protein kinase ABL1 (Homo sapiens), P00519 [F317I]; settings: Compound concentration 1000.0 nM
[2] = tested on: Epidermal growth factor receptor (Homo sapiens), P00533 [G719S]; settings: Compound concentration 1000.0 nM
[3] = target: Receptor tyrosine-protein kinase erbB-2 (Homo sapiens) (UniProt P04626); settings: Compound concentration 1000.0 nM
[4] = target: Calcium/calmodulin-dependent protein kinase type II subunit delta (Homo sapiens) (UniProt Q13557); settings: Compound concentration 1000.0 nM
[5] = target: AP2-associated protein kinase 1 (Homo sapiens) (UniProt Q2M2I8); settings: Compound concentration 1000.0 nM
[6] = target: Tyrosine-protein kinase Fyn (Homo sapiens) (UniProt P06241); settings: Compound concentration 1000.0 nM
[7] = target: High affinity nerve growth factor receptor (Homo sapiens) (UniProt P04629); settings: Compound concentration 1000.0 nM
[8] = tested on: Mast/stem cell growth factor receptor Kit (Homo sapiens), P10721 [D816H]; settings: Compound concentration 1000.0 nM
[9] = target: Tyrosine-protein kinase Fes/Fps (Homo sapiens) (UniProt P07332); settings: Compound concentration 1000.0 nM
[10] = target: Serine/threonine-protein kinase 16 (Homo sapiens) (UniProt O75716); settings: Compound concentration 1000.0 nM
[11] = target: Muscarinic acetylcholine receptor M5 (Homo sapiens) (UniProt P08912); settings: Compound concentration 10.0 uM
[12] = target: Tyrosine-protein kinase Srms (Homo sapiens) (UniProt Q9H3Y6); settings: Compound concentration 1000.0 nM
[13] = target: Cyclin-dependent kinase 19 (Homo sapiens) (UniProt Q9BWU1); settings: Compound concentration 1000.0 nM
[14] = target: Ribosomal protein S6 kinase alpha-4 (Homo sapiens) (UniProt O75676); settings: Compound concentration 1000.0 nM
[15] = target: Serine/threonine-protein kinase Nek7 (Homo sapiens) (UniProt Q8TDX7); settings: Compound concentration 1000.0 nM
[16] = target: Cyclin-dependent kinase 3 (Homo sapiens) (UniProt Q00526); settings: Compound concentration 1000.0 nM
[17] = target: cAMP-dependent protein kinase catalytic subunit PRKX (Homo sapiens) (UniProt P51817); settings: Compound concentration 1000.0 nM
[18] = target: Citron Rho-interacting kinase (Homo sapiens) (UniProt O14578); settings: Compound concentration 1000.0 nM
[19] = target: Serine/threonine-protein kinase pim-1 (Homo sapiens) (UniProt P11309); settings: Compound concentration 1000.0 nM
[20] = target: Death-associated protein kinase 3 (Homo sapiens) (UniProt O43293); settings: Compound concentration 1000.0 nM
[21] = target: Phosphatidylinositol 3-kinase C2 domain-containing subunit gamma (Homo sapiens) (UniProt O75747); settings: Compound concentration 1000.0 nM
[22] = target: Tyrosine-protein kinase ITK/TSK (Homo sapiens) (UniProt Q08881); settings: Compound concentration 1000.0 nM
[23] = target: Interleukin-1 receptor-associated kinase 1 (Homo sapiens) (UniProt P51617); settings: Compound concentration 1000.0 nM
[24] = target: Serine/threonine-protein kinase PAK 6 (Homo sapiens) (UniProt Q9NQU5); settings: Compound concentration 1000.0 nM
[25] = target: Receptor-type tyrosine-protein kinase FLT3 (Homo sapiens) (UniProt P36888); settings: Compound concentration 1000.0 nM
[26] = target: NUAK family SNF1-like kinase 2 (Homo sapiens) (UniProt Q9H093); settings: Compound concentration 1000.0 nM
[27] = target: Bone morphogenetic protein receptor type-2 (Homo sapiens) (UniProt Q13873); settings: Compound concentration 1000.0 nM
[28] = target: Sodium-dependent noradrenaline transporter (Homo sapiens) (UniProt P23975); settings: Compound concentration 10.0 uM
[29] = target: Serine/threonine-protein kinase 38-like (Homo sapiens) (UniProt Q9Y2H1); settings: Compound concentration 1000.0 nM
[30] = target: Cyclin-dependent kinase 9 (Homo sapiens) (UniProt P50750); settings: Compound concentration 1000.0 nM
[31] = tested on: Epidermal growth factor receptor (Homo sapiens), P00533 [UNDEFINED MUTATION]; settings: Compound concentration 1000.0 nM
[32] = tested on: Serine/threonine-protein kinase B-raf (Homo sapiens), P15056 [V600E]; settings: Compound concentration 1000.0 nM
[33] = target: Ephrin type-A receptor 1 (Homo sapiens) (UniProt P21709); settings: Compound concentration 1000.0 nM
[34] = target: Cyclin-dependent kinase 4 (Homo sapiens) (UniProt P11802); settings: Compound concentration 1000.0 nM
[35] = target: Cyclin-dependent kinase 18 (Homo sapiens) (UniProt Q07002); settings: Compound concentration 1000.0 nM
[36] = target: Dual specificity mitogen-activated protein kinase kinase 6 (Homo sapiens) (UniProt P52564); settings: Compound concentration 1000.0 nM
[37] = target: Uncharacterized serine/threonine-protein kinase SBK3 (Homo sapiens) (UniProt P0C264); settings: Compound concentration 1000.0 nM
[38] = target: Cyclin-dependent kinase 4 (Homo sapiens) (UniProt P11802); settings: Compound concentration 1000.0 nM; remark: listed apart in the source
[39] = tested on: Receptor-type tyrosine-protein kinase FLT3 (Homo sapiens), P36888 [UNDEFINED MUTATION]; settings: Compound concentration 1000.0 nM
[40] = target: Calcium/calmodulin-dependent protein kinase type II subunit alpha (Homo sapiens) (UniProt Q9UQM7); settings: Compound concentration 1000.0 nM
[41] = target: Sodium-dependent dopamine transporter (Homo sapiens) (UniProt Q01959); settings: Compound concentration 10.0 uM
[42] = target: Tyrosine-protein kinase ABL1 (Homo sapiens) (UniProt P00519); settings: Compound concentration 1000.0 nM
[43] = target: Serine/threonine-protein kinase WNK4 (Homo sapiens) (UniProt Q96J92); settings: Compound concentration 1000.0 nM
[44] = target: Peripheral plasma membrane protein CASK (Homo sapiens) (UniProt O14936); settings: Compound concentration 1000.0 nM
[45] = target: Wee1-like protein kinase (Homo sapiens) (UniProt P30291); settings: Compound concentration 1000.0 nM

Chain of Cyclin-dependent kinase 4 (Homo sapiens) (P11802 whole entry): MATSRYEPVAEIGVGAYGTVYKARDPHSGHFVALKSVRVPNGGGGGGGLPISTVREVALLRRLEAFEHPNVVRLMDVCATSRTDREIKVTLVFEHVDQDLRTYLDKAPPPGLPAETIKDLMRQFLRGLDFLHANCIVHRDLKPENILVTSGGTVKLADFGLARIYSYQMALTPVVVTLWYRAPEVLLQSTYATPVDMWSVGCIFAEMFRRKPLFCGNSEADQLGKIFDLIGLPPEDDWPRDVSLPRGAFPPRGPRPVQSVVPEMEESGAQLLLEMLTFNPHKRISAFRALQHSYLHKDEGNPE
Chain of Tyrosine-protein kinase ITK/TSK (Homo sapiens) (Q08881 whole entry): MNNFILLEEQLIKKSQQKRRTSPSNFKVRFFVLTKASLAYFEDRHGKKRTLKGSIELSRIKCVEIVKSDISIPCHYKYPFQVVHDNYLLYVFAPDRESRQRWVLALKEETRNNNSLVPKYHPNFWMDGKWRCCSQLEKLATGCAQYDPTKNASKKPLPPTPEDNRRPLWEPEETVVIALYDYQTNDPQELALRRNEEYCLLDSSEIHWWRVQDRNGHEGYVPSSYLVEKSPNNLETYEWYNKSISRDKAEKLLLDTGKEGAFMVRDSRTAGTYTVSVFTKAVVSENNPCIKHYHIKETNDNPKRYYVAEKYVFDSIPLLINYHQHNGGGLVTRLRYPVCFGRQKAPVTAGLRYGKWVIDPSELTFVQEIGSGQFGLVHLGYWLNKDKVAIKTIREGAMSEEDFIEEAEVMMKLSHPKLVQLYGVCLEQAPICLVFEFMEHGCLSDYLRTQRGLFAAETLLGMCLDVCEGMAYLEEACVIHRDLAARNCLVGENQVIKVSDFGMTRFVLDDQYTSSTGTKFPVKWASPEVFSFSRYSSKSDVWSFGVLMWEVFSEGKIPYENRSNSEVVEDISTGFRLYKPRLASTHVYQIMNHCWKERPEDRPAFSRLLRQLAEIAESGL
Chain of Serine/threonine-protein kinase Nek7 (Homo sapiens) (Q8TDX7 whole entry, looked up): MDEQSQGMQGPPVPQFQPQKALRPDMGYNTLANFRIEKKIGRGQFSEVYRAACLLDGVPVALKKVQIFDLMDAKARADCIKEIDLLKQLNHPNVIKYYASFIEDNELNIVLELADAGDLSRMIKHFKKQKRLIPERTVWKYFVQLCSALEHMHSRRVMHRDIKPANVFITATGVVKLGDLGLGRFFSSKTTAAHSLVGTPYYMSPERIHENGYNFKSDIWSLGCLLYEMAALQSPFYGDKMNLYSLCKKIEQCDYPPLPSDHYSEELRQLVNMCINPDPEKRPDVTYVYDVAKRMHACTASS
Chain of NUAK family SNF1-like kinase 2 (Homo sapiens) (Q9H093 whole entry): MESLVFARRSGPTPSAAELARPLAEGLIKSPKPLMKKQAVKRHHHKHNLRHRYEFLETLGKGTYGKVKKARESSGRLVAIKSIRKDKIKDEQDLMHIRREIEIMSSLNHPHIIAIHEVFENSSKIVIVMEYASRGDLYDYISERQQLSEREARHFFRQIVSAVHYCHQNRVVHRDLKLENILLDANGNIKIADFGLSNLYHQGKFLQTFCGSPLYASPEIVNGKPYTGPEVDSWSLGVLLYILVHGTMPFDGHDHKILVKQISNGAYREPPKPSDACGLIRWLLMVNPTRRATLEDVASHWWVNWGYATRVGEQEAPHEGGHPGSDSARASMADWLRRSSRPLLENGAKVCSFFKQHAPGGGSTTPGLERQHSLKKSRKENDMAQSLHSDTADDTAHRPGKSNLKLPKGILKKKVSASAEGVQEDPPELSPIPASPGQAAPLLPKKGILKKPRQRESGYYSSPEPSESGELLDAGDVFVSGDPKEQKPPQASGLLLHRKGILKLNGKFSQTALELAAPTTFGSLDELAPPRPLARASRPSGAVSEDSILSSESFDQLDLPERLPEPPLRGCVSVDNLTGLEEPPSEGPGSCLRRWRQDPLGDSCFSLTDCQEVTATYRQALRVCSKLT
Chain of Peripheral plasma membrane protein CASK (Homo sapiens) (O14936 whole entry): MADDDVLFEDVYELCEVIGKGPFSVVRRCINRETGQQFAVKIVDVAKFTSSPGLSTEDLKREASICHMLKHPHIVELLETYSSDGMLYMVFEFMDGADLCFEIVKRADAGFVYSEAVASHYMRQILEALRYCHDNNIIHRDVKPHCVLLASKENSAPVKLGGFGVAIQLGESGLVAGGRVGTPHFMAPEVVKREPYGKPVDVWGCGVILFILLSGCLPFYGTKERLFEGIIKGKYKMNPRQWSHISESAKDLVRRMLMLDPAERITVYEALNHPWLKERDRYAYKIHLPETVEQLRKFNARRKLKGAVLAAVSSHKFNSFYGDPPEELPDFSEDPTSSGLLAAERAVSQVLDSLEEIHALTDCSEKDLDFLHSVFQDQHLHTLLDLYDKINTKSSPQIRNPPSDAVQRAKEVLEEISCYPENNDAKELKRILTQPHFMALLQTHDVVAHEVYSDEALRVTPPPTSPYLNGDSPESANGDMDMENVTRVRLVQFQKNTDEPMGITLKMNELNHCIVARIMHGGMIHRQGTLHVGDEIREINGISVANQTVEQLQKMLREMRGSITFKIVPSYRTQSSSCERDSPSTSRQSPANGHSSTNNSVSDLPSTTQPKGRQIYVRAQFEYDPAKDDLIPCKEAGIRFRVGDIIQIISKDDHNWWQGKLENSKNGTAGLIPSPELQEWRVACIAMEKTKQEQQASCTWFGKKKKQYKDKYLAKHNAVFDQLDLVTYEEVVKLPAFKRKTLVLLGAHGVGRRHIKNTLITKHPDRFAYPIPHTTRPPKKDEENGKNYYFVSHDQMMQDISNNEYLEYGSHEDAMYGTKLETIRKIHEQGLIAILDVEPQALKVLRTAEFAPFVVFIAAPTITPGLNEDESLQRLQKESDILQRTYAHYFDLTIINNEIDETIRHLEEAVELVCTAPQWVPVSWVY
Chain of Ribosomal protein S6 kinase alpha-4 (Homo sapiens) (O75676 whole entry, looked up): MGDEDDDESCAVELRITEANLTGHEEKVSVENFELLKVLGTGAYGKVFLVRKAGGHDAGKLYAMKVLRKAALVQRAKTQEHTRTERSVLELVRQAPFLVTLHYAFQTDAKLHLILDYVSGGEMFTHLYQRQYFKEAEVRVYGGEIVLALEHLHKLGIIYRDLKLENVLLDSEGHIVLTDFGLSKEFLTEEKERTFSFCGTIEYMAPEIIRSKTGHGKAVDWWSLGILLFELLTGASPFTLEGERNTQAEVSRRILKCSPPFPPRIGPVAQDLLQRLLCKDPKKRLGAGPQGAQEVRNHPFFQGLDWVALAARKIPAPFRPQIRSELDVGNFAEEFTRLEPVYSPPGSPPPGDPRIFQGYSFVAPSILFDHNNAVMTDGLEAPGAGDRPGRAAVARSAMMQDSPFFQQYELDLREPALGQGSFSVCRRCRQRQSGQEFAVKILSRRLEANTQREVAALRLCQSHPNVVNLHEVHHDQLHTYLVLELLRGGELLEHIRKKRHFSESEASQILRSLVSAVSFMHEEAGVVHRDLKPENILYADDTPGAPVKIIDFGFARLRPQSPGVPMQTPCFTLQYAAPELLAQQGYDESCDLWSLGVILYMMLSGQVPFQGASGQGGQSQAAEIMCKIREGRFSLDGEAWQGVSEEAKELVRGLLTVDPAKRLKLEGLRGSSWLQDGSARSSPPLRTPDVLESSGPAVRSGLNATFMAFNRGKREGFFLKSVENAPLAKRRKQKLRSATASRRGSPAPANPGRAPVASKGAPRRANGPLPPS
Chain of Sodium-dependent dopamine transporter (Homo sapiens) (Q01959 whole entry): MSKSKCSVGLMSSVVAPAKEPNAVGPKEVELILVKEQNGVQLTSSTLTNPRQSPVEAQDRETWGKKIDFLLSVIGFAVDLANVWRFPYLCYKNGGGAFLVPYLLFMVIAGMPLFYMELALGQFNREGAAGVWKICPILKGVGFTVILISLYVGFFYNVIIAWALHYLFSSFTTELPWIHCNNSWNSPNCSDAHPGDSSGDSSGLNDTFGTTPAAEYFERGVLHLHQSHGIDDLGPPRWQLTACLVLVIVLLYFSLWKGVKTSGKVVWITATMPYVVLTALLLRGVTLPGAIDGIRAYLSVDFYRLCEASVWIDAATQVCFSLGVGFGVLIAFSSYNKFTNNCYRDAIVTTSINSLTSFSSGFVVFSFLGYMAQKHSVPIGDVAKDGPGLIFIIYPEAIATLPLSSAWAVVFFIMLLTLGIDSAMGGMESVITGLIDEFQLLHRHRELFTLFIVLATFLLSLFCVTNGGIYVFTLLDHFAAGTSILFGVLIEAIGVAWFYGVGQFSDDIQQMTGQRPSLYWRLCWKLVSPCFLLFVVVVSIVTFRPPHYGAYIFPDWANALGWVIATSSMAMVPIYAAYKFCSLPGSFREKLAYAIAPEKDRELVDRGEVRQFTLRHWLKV
Chain of Cyclin-dependent kinase 19 (Homo sapiens) (Q9BWU1 whole entry): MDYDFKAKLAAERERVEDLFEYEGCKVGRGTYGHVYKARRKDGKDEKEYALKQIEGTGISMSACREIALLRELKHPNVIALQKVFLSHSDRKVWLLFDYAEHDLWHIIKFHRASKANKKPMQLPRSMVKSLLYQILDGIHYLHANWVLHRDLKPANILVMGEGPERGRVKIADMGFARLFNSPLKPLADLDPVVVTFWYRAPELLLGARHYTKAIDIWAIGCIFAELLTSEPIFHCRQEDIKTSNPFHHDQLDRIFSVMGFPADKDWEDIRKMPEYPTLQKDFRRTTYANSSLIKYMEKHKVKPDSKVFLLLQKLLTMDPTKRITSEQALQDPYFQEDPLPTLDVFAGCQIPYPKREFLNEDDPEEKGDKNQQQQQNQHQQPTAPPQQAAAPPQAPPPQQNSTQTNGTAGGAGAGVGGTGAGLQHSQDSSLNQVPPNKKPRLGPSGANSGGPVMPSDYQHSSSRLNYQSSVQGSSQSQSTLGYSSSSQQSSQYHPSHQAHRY
Chain of Dual specificity mitogen-activated protein kinase kinase 6 (Homo sapiens) (P52564 whole entry): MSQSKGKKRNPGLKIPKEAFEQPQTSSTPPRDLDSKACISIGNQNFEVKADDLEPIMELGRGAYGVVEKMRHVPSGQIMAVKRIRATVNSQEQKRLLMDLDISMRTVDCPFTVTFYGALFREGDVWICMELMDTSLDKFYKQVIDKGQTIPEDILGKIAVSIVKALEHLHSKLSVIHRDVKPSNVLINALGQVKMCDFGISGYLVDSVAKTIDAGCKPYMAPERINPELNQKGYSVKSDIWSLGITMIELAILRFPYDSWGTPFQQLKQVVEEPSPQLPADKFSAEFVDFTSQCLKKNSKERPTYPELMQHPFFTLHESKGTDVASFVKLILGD

FC(F)(F)c1ccc2c(c1)nc(-c1cccnc1)n2C1CC1 [MSD-CYP11B2-Negative-control]
inactive: residual activity [1] 100% | residual activity [2] 93% | residual activity [3] 100% | residual activity [4] 100% | residual activity [5] 100% | residual activity [6] 100% | residual activity [7] 100% | residual activity [8] 100% | residual activity [9] 100% | residual activity [10] 100% | inhibition [11] -6.15% | residual activity [12] 95% | residual activity [13] 100% | residual activity [14] 100% | residual activity [15] 100% | residual activity [16] 100% | residual activity [17] 100% | residual activity [18] 100% | residual activity [19] 94% | residual activity [20] 100% | residual activity [21] 100% | residual activity [22] 100% | residual activity [23] 100% | residual activity [24] 100% | residual activity [25] 93% | residual activity [26] 100% | residual activity [27] 100% | inhibition [28] 17.2% | residual activity [29] 100% | residual activity [30] 100% | residual activity [31] 100% | residual activity [32] 100% | residual activity [33] 100% | residual activity [34] 100% | residual activity [35] 100% | residual activity [36] 98% | residual activity [37] 76% | residual activity [38] 100% | residual activity [39] 100% | residual activity [40] 88% | inhibition [41] 15.3% | residual activity [42] 91% | residual activity [43] 100% | residual activity [44] 100% | residual activity [45] 93%

CC(C)(O)c1cncc(-c2nc3ccc(F)cc3n2C2CC2)c1 [MSD-CYP11B2]
inactive: residual activity [1] 100% | residual activity [2] 100% | residual activity [3] 100% | residual activity [4] 100% | residual activity [5] 100% | residual activity [6] 100% | residual activity [7] 100% | residual activity [8] 100% | residual activity [9] 100% | residual activity [10] 100% | inhibition [11] -2.81% | residual activity [12] 100% | residual activity [13] 94% | residual activity [14] 100% | residual activity [15] 100% | residual activity [16] 100% | residual activity [17] 100% | residual activity [18] 100% | residual activity [19] 92% | residual activity [20] 100% | residual activity [21] 100% | residual activity [22] 100% | residual activity [23] 100% | residual activity [24] 100% | residual activity [25] 93% | residual activity [26] 100% | residual activity [27] 100% | inhibition [28] 2.3% | residual activity [29] 100% | residual activity [30] 100% | residual activity [31] 100% | residual activity [32] 98% | residual activity [33] 100% | residual activity [34] 100% | residual activity [35] 100% | residual activity [36] 100% | residual activity [37] 77% | residual activity [38] 100% | residual activity [39] 100% | residual activity [40] 94% | inhibition [41] 1.47% | residual activity [42] 89% | residual activity [43] 100% | residual activity [44] 89% | residual activity [45] 72%

From ChEMBL document CHEMBL4507294, “Data for DCP probe MSD-CYP11B2” (2021)
